According to patent US6433175B1, “Pyrroloindoles, pyridoindoles and azepinoindoles as 5-ht2c agonists” (Vernalis Research Limited, priority 1998, dated 2002):
Structures can show the parent of a compound that is named as a salt. Where two headings read alike, the source gives them in different places.

What was measured:
human 5-HT2C [1] = target: T1, human 5-HT2C (Homo sapiens, UniProt P28335); test: Binding to 5-HT2C receptor, [3H]-5-HT, CHO cell line; parameters: expressed in transfected cells; host or cells: CHO cell line
T1 sequence (P28335 33-458): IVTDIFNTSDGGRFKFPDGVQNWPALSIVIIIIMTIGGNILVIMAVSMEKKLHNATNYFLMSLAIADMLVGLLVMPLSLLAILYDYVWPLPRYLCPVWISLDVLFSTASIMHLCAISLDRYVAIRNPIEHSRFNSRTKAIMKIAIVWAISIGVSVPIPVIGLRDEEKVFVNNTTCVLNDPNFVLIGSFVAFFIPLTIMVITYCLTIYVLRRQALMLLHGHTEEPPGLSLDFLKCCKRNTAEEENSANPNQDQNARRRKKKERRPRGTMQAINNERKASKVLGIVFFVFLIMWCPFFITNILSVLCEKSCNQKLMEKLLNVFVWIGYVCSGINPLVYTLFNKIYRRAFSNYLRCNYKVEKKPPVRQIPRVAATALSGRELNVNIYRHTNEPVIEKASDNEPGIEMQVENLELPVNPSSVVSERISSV
Experimental: (§1) The binding of compounds of formula (I) to serotonin receptors was determined in vitro by standard methods. The preparations were investigated in accordance with the assays given hereinafter.
Method (a): For the binding to the 5-HT2C receptor the 5-HT2C receptors were radiolabeled with [^3H]-5-HT. The affinity of the compounds for 5-HT2C receptors in a CHO cell line was determined according to the procedure of D. Hoyer, G. Engel and H. O. Kalkman, European J. Pharmacol., 1985, 118, 13-23.

5-HT2A receptor [2] = target: T2, 5-HT2A receptor (Homo sapiens, UniProt P28223); test: Binding to 5-HT2A receptor, [125I]-DOI, CHO cell line; parameters: expressed in transfected cells; host or cells: CHO cell line
Experimental: as §1
Method (c): For the binding to the 5-HT2A receptor the 5-HT2A receptors were radiolabeled with [^125I]-DOI. The affinity of the compounds for 5-HT2A receptors in a CHO cell line was determined according to the procedure of D. J. McKenna and S. J. Peroutka, J. Neurosci., 1989, 9, 3482-90.

human 5-HT2B receptors = target: T3, human 5-HT2B receptors (Homo sapiens, UniProt P41595); test: Binding to 5-HT2B receptor, [3H]-5-HT, CHO cell line
T3 construct: expressed in transfected cells; host or cells: CHO cell line
Experimental: as §1
Method (b): For the binding to the 5-HT2B receptor the 5-HT2B receptors were radiolabeled with [^3H]-5-HT. The affinity of the compounds for human 5-HT2B receptors in a CHO cell line was determined according to the procedure of K. Schmuck, C. Ullmer, P. Engels and H. Lubbert, FEBS Lett., 1994, 342, 85-90.

5-HT2A receptor [3] = target: T2, 5-HT2A receptor; test: Functional activity, FLIPR calcium assay, CHO cells expressing human 5-HT2A; type: cell-based; parameters: expressed in transfected cells; host or cells: CHO cells; settings: for EC50: CHO cells; for h5-HT2A Relative Efficacy: maximum fluorescent signal relative to 10 μM 5-HT (100%)
Experimental: (§2) The functional activity of compounds of formula (I) was assayed using a Fluorimetric Imaging Plate reader (FLIPR). CHO cells expressing the human 5-HT2C or human 5-HT2A receptors were counted and plated into standard 96 well microtitre plates on the day before testing to give a confluent monolayer. The cells were then dye loaded with the calcium sensitive dye, Fluo-3-AM. Unincorporated dye was removed using an automated cell washer to leave a total volume of 100 μL/well of assay buffer (Hanks balanced salt solution containing 20 mM Hepes and 2.5 mM probenecid). The drug (dissolved in 50 μL of the assay buffer) was added at a rate of 70 μL/sec to each well of the FLIPR 96 well plate during fluorescence measurements. The measurements were taken at 1 sec intervals and the maximum fluorescent signal was measured (approx 10-15 secs after drug addition) and compared with the response produced by 10 μM 5-HT (defined as 100%) to which it was expressed as a percentage response (relative efficacy). Dose response curves were constructed using Graphpad Prism (Graph Software Inc.).

human 5-HT2C [4] = target: T1, human 5-HT2C; test: Functional activity, FLIPR calcium assay, CHO cells expressing human 5-HT2C; type: cell-based; parameters: expressed in transfected cells; host or cells: CHO cells; settings: for EC50: CHO cells; for h5-HT2c Relative Efficacy: maximum fluorescent signal relative to 10 μM 5-HT (100%)
Experimental: as §2

[5] = cited from earlier work
rats [6] = settings: cited from earlier work
rats [7] = test: In vivo efficacy: 5-HT2C syndrome in rats; parameters: species or system rat; settings: 20 mg/kg s.c.
Experimental: The in vivo efficacy of 5-HT2C agonists was assessed by the ability of the compounds to induce three specific behaviours (5HT2C Syndrome) in rats.
The 5-HT2c syndrome is a rapid screening method to assess the in vivo efficacy of 5-HT2c agonists through their ability to induce three specific behaviours in rats. The animals were dosed with either a positive control (mCPP), test compound or vehicle, either sub-cutaneously or p.o. The animals were observed on an open bench, typically 30, 60 and 180 minutes after dosing and the degree of syndrome was assessed over a two minute period on a scale of 0-3 depending on the presence and severity of splayed limbs, hunched posture and retro-pulsion, the three specific behaviours which constitute the syndrome. Data were analysed using Kruskal-Wallis Analysis of Variance followed with appropriate post-hoc tests. All statistical analysis were conducted using Excel version 7.0 (Microsoft Corp.) and Statistica version 5.0 (Statsoft, Inc.).

[8] = [3H]-5-HT, CHO cell line, read-out: Ki (2C)
[9] = [125I]-DOI, CHO cell line, read-out: Ki (2A)
[10] = [3H]-5-HT, human receptor, CHO cell line, read-out: Ki (2B)

T3 sequence (P41595 whole entry): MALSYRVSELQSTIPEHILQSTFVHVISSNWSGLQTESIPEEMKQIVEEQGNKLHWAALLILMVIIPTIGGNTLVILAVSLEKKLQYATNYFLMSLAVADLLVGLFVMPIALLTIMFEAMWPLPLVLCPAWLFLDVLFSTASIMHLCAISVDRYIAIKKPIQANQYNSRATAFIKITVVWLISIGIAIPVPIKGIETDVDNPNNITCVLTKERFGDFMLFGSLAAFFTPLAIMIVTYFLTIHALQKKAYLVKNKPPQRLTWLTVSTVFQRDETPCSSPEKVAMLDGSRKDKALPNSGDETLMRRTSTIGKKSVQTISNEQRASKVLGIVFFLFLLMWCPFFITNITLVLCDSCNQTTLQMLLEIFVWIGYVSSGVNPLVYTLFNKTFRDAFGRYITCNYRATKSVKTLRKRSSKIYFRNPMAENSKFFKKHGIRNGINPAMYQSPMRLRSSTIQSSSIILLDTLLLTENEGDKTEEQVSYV
T2 sequence (P28223 whole entry): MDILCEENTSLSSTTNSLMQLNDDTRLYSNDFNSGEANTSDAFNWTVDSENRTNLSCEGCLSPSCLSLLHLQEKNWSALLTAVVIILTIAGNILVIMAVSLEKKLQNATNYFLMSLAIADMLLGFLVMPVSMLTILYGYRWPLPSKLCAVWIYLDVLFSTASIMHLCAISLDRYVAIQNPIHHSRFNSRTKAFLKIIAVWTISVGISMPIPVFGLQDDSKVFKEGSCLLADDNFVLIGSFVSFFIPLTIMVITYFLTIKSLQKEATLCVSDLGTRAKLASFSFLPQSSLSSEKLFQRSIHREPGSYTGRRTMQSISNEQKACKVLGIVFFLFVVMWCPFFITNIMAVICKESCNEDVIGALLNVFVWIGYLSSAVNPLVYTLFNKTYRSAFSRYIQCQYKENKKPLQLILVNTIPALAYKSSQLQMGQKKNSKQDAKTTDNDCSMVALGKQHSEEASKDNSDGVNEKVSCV

Row | SMILES | EC50 (5-HT2A receptor [3]; FLIPR, read-out: h5-HT2A EC50) | EC50 (human 5-HT2C [4]; h5-HT2c EC50, FLIPR) | h5-HT2c Relative Efficacy (human 5-HT2C [4]) | h5-HT2A Relative Efficacy (5-HT2A receptor [3]) | melting point | further results
1 | CSc1ccc2c(c1)c(CC(C)N)c1n2CCC1 (racemic) [Example 11, (RS)-1-(7-Methylthio-2,3-dihydro-1H-pyrrolo[1,2-a]indol-9-yl)-2-propylamine fumarate] | > 10000 nM | 8 nM | 80% |  |  | Ki (human 5-HT2C [1]; [8]): 84 nM; Ki (5-HT2A receptor [2]; [9]): 316 nM; Ki (human 5-HT2B receptors; [10]): 115 nM
2 | Clc1cccc(N2CCNCC2)c1 [mCPP, m-chlorophenylpiperazine] |  |  |  |  |  | appetite and body weight of obese subjects ([5]; obese male and female subjects, subchronic treatment for 14 days): decreased the appetite and body weight; food intake in female volunteers ([5]; single dose, female volunteers): decreased food intake; food intake in rats (rats [6]): reduce food intake
3 | CC(N)Cc1c2n(c3ccc(Br)cc13)CCC2 (racemic) [Example 5, (RS)-1-(7-Bromo-2,3-dihydro-1H-pyrrolo[1,2-a]indol-9-yl)-2-propylamine fumarate] | 4020 nM | 94 nM | 69% | 33% |  | Ki (human 5-HT2C [1]; [8]): 81 nM; Ki (5-HT2A receptor [2]; [9]): 448 nM; Ki (human 5-HT2B receptors; [10]): 122 nM
4 | CC(N)Cc1c2n(c3cccc(Cl)c13)CCC2 (racemic) (as salt: fumarate) |  |  |  |  | 207 to 208 °C | 
5 | COc1ccc2c(c1)c(CC(C)NCC1CCCCC1)c1n2CCC1 (racemic) (as salt: hydrochloride) |  |  |  |  | 210 to 213 °C | 
6 | CC(N)Cc1c2n(c3cc(F)c(F)cc13)CCC2 (racemic) (as salt: hydrochloride) [Example 2, (RS)-1-(6,7-Difluoro-2,3-dihydro-1H-pyrrolo[1,2-a]indol-9-yl)-2-propylamine hydrochloride] |  |  |  |  | 264 to 266 °C | 
7 | COc1ccc2c(c1)c(CC(C)N)c1n2CCC1 (racemic) (as salt: fumarate) [Example 3, (RS)-1-(7-Methoxy-2,3-dihydro-1H-pyrrolo[1,2-a]indol-9-yl)-2-propylamine fumarate] |  |  |  |  | 194 to 196 °C | 
8 | Cc1ccc2c(c1)c(CC(C)N)c1n2CCC1 (racemic) [Example 6, (RS)-1-(7-Methyl-2,3-dihydro-1H-pyrrolo[1,2-a]indol-9-yl)-2-propylamine fumarate] | > 10000 nM | 348 nM | 56% |  |  | 
9 | CC(N)Cc1c2n(c3ccc(OCc4ccccc4)cc13)CCC2 (racemic) (as salt: fumarate) |  |  |  |  | 146 to 147 °C (dec.) | 
10 | COc1ccc2c(c1)c(CC(C)NCCC(C)C)c1n2CCC1 (racemic) (as salt: hydrochloride) |  |  |  |  | 118 to 121 °C | 
11 | COc1ccc2c(c1)c(CC(C)N)c1n2CCC1 (single isomer, unassigned; enantiomer 2) [Example 9, Enantiomer 2 of 1-(7-Methoxy-2,3-dihydro-1H-pyrrolo[1,2-a]indol-9-yl)-2-propylamine fumarate] | 792 nM | 7 nM | 81% | 40% |  | 
12 | CC(N)Cc1c2n(c3ccc(Cl)cc13)CCC2 (racemic) (as salt: hydrochloride) [Example 1, (RS)-1-(7-Chloro-2,3-dihydro-1H-pyrrolo[1,2-a]indol-9-yl)-2-propylamine hydrochloride] |  |  |  |  | 272 to 273 °C | 
13 | COc1ccc2c(c1)c(CC(C)NCC(C)(C)C)c1n2CCC1 (racemic) (as salt: hydrochloride) |  |  |  |  | 226 to 228 °C | 
14 | COc1ccc2c(c1)c(CC(C)NCC1CC1)c1n2CCC1 (racemic) (as salt: hydrochloride) |  |  |  |  | 149 to 151 °C | 
15 | CC(N)Cc1c2n(c3cc4c(cc13)OCO4)CCC2 (racemic) [Example 7, (RS)-1-[6,7-(Methylenedioxy)-2,3-dihydro-1H-pyrrolo[1,2-a]indol-9-yl]-2-propylamine fumarate] | 2620 nM | 227 nM | 59% | 37% |  | 
16 | CSc1ccc2c(c1)c(CC(C)N)c1n2CCC1 (racemic) (as salt: fumarate) [Example 11, (RS)-1-(7-Methylthio-2,3-dihydro-1H-pyrrolo[1,2-a]indol-9-yl)-2-propylamine fumarate] |  |  |  |  | 204 to 206 °C (dec.) | 
17 | CC(N)Cc1c2n(c3ccc(Cl)cc13)CCC2 (racemic) [Example 1, (RS)-1-(7-Chloro-2,3-dihydro-1H-pyrrolo[1,2-a]indol-9-yl)-2-propylamine hydrochloride] | 3240 nM | 96 nM | 68% | 33% |  | Ki (human 5-HT2C [1]; [8]): 110 nM; Ki (5-HT2A receptor [2]; [9]): 457 nM; Ki (human 5-HT2B receptors; [10]): 229 nM
18 | COc1ccc2c(c1)c(CC(C)N)c1n2CCC1 (single isomer, unassigned; enantiomer 1) [Example 8] | 921 nM | 33 nM | 58% | 36% |  | 
19 | Cc1ccc2c(c1)c(CC(C)N)c1n2CCC1 (racemic) (as salt: fumarate) [Example 6, (RS)-1-(7-Methyl-2,3-dihydro-1H-pyrrolo[1,2-a]indol-9-yl)-2-propylamine fumarate] |  |  |  |  | 138 to 139 °C | 
20 | CC(N)Cc1c2n(c3cc(F)c(F)cc13)CCC2 (racemic) [Example 2, (RS)-1-(6,7-Difluoro-2,3-dihydro-1H-pyrrolo[1,2-a]indol-9-yl)-2-propylamine hydrochloride] |  |  | 38% | 12% |  | Ki (human 5-HT2C [1]): 97 nM; Ki (5-HT2A receptor [2]): 257 nM; Ki (human 5-HT2B receptors): 102 nM; EC50 (5-HT2A receptor [3]; h5-HT2A EC50, FLIPR): > 1000 nM; EC50 (human 5-HT2C [4]; FLIPR, read-out: h5-HT2c EC50): 147 nM
21 | COc1ccc2c(c1)c(CC(C)N)c1n2CCC1 (racemic) [Example 3, (RS)-1-(7-Methoxy-2,3-dihydro-1H-pyrrolo[1,2-a]indol-9-yl)-2-propylamine fumarate] | 636 nM | 32 nM | 63% | 22% |  | time for which significant pharmacological efficacy is maintained (5-HT2C syndrome) (rats [7]): at least 180 minutes; Ki (human 5-HT2C [1]; [8]): 118 nM; Ki (5-HT2A receptor [2]; [9]): 151 nM; Ki (human 5-HT2B receptors; [10]): 220 nM
